Test systems include ACHN renal; DU-145 prostate; HOP-92 NSCLC; K-562 leukemia; MDA-MB-231 breast; NCI-H226 lung; NCI-H460 lung; NCI/ADR-RES ovarian; OVCAR-5 ovarian; SN12C renal; SNB-19 CNS; SR leukemia; TK-10 renal; U251 CNS; UACC-62 melanoma; UO-31 renal; COLO 205 colon; RXF 393 renal; SNB-75 CNS.
What all share (assay): NCI-60 cell line screen, 48 h

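How tested: cells in 96-well plates exposed to compound for 48 hours at five concentrations. TGI is the concentration that stops growth completely.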

Eight compounds from PubChem BioAssay (NCI) can be followed below.

Turning to `CC1(C)OC[C@H](COCOP2(=O)Oc3ccc4ccccc4c3-c3c(ccc4ccccc34)O2)O1`, the TGI amounted to 37.3 µM with ACHN renal; 32.2 µM in the assay with DU-145 prostate; 28.5 µM in the assay with HOP-92 NSCLC; 80.6 µM with K-562 leukemia; 31 µM in the assay with MDA-MB-231 breast; 37.3 µM with NCI-H226 lung. For the same compound, the TGI in the assay on NCI-H460 lung is 33.3 µM; with NCI/ADR-RES ovarian, 36 µM; with OVCAR-5 ovarian it was 33.4 µM; in the assay on SN12C renal, 30.1 µM; in the assay with SNB-19 CNS, 34.7 µM; in the assay with SR leukemia it was 45.6 µM. Further, the TGI in the assay with TK-10 renal was 35.6 µM; with U251 CNS it was 31.9 µM; with UACC-62 melanoma, 46.9 µM; in the assay on UO-31 renal, 32.6 µM.

With `Nc1n[nH]c2c(C(=O)Nc3ccc(Cl)cc3)c(N)n(N)c(=O)c12`, the TGI in the assay on COLO 205 colon, in the assay with DU-145 prostate, in the assay with K-562 leukemia, in the assay with MDA-MB-231 breast, in the assay with NCI-H226 lung and in the assay with NCI-H460 lung was greater than 100 µM each time. Further, the TGI in the assay with NCI/ADR-RES ovarian, with OVCAR-5 ovarian, with RXF 393 renal, in the assay on SN12C renal, in the assay with SNB-19 CNS and with SNB-75 CNS was greater than 100 µM throughout. Besides, the TGI in the assay on SR leukemia, with TK-10 renal, with U251 CNS, in the assay on UACC-62 melanoma and in the assay on UO-31 renal was greater than 100 µM in each case.

As to `CC1CC(=NC2CCCCC2)Nc2ccccc2N1Cc1ccccc1` (stereo unspecified), the TGI in the assay with ACHN renal is 22.8 µM; with COLO 205 colon, 17 µM; in the assay on DU-145 prostate, 17 µM; with K-562 leukemia, greater than 36.1 µM; with MDA-MB-231 breast, 17 µM; in the assay with NCI-H226 lung it was 27.8 µM. The TGI in the assay on NCI-H460 lung stood at 14.5 µM; with NCI/ADR-RES ovarian it was 19.9 µM; in the assay on OVCAR-5 ovarian it was 24 µM; with RXF 393 renal, 10.5 µM; with SN12C renal, 22.1 µM; in the assay with SNB-19 CNS, 24.2 µM. Also, the TGI was 3.18 µM in the assay with SNB-75 CNS; greater than 100 µM in the assay with SR leukemia; 25.2 µM in the assay on TK-10 renal; 19.9 µM with U251 CNS; 3.69 µM in the assay on UACC-62 melanoma; 13.3 µM with UO-31 renal.

As to `C=CCSC1=N/C(=C\c2ccc(OC)cc2)C(=O)N1CC=C`, the TGI was greater than 100 µM in the assay on ACHN renal; 40.2 µM with COLO 205 colon; greater than 100 µM in the assay with DU-145 prostate; greater than 100 µM in the assay with HOP-92 NSCLC; greater than 100 µM with K-562 leukemia; greater than 100 µM in the assay on MDA-MB-231 breast. Moreover, the TGI in the assay with NCI-H460 lung is greater than 100 µM; in the assay on NCI/ADR-RES ovarian it was greater than 100 µM; with OVCAR-5 ovarian it was greater than 100 µM; in the assay with RXF 393 renal it was 50.1 µM; in the assay with SN12C renal, 62.2 µM; in the assay on SNB-19 CNS, greater than 100 µM. Also, the TGI in the assay on SR leukemia was 43.7 µM; with TK-10 renal, greater than 100 µM; in the assay with U251 CNS, greater than 100 µM; in the assay on UACC-62 melanoma it was greater than 100 µM; with UO-31 renal, greater than 100 µM.

In the case of `CNn1c(-c2ccc(C)cc2)n[nH]c1=O`, the TGI with ACHN renal, in the assay with COLO 205 colon, in the assay with HOP-92 NSCLC, with K-562 leukemia, in the assay with MDA-MB-231 breast and with NCI-H226 lung was greater than 100 µM each time. For the same compound, the TGI in the assay on NCI-H460 lung, in the assay on NCI/ADR-RES ovarian, in the assay with OVCAR-5 ovarian, in the assay on RXF 393 renal, with SN12C renal and in the assay on SNB-19 CNS was greater than 100 µM in each case. The TGI with SR leukemia, in the assay on TK-10 renal, with U251 CNS, in the assay with UACC-62 melanoma and in the assay with UO-31 renal was greater than 100 µM throughout.

For `COc1cccc(/C=C2\SC(=S)N(/C=C3\C(=O)Oc4ccccc4C3=O)C2=O)c1O`, the TGI in the assay with ACHN renal, with COLO 205 colon, with DU-145 prostate, with K-562 leukemia, in the assay on MDA-MB-231 breast and in the assay with NCI-H226 lung was greater than 100 µM in each case. The TGI with NCI-H460 lung, in the assay on NCI/ADR-RES ovarian, in the assay on OVCAR-5 ovarian, in the assay on RXF 393 renal, in the assay with SN12C renal and with SNB-19 CNS was greater than 100 µM throughout. Further, the TGI was greater than 100 µM in the assay on SNB-75 CNS; greater than 100 µM in the assay on SR leukemia; greater than 100 µM in the assay on U251 CNS; greater than 100 µM in the assay on UACC-62 melanoma; 48.2 µM with UO-31 renal.

Regarding `COC(=O)CSc1nc2[nH]c(SC)c(C(N)=O)c2c(=O)n1-c1ccccc1`, the TGI with COLO 205 colon, in the assay on DU-145 prostate, in the assay on HOP-92 NSCLC, with K-562 leukemia, in the assay with MDA-MB-231 breast and in the assay with RXF 393 renal was greater than 10 µM each time. For the same compound, the TGI in the assay with SN12C renal, with SNB-75 CNS, in the assay with SR leukemia, with TK-10 renal and with UACC-62 melanoma was greater than 10 µM each time.

On to `CC(C)OC(=O)C1(C(C)C)CCc2ccc(C(=O)CCC(=O)O)cc21` (stereo unspecified), for which the TGI with ACHN renal, in the assay on COLO 205 colon, in the assay on DU-145 prostate, in the assay with K-562 leukemia, in the assay with MDA-MB-231 breast and with NCI-H226 lung was greater than 100 µM each time. Also, the TGI in the assay on NCI-H460 lung, in the assay on NCI/ADR-RES ovarian, with OVCAR-5 ovarian, in the assay on RXF 393 renal, with SN12C renal and with SNB-19 CNS was greater than 100 µM throughout. For the same compound, the TGI with SNB-75 CNS, in the assay with SR leukemia, in the assay on TK-10 renal, with U251 CNS, in the assay with UACC-62 melanoma and with UO-31 renal was greater than 100 µM throughout.
